Values of other authors in patent US20060089319A1, “Method for treatment and prevention of bacterial vaginosis” (priority 2004, published 2006).

System: bacterial vaginosis

## Cc1ncc([N+](=O)[O-])n1CCO [metronidazole]
oral, high-risk women with previous preterm delivery, double-blind study by Morales et al.
  hospital admissions for preterm labor, preterm births, PROM, and low-birth-weight infants: fewer
oral, pregnant women, two separate studies
  long-term suppression of bacterial vaginosis flora (duration): 2-3 months
Pregnant women, numerous studies
  treatment of bacterial vaginosis in pregnant women, thereby preventing preterm delivery: effective treatment
